Reference: patent US20240033272A1, “USE OF C[…] THE TREATMENT OF SEIZURES ASSOCIATED WITH HERPES SIMPLEX VIRUS” (GW Research Limited, priority 2020, published 2024)

System: patients diagnosed with herpes simplex virus (seizures associated with herpes simplex virus)
Test: Open label, expanded-access program: seizure frequency recorded by caregivers in a diary, change relative to baseline
Type: in vivo, human
Parameters: Reduction in myoclonic seizures over the treatment period / Reduction in absence seizures over the treatment period / Reduction in focal seizures with impairment over the treatment period / Reduction in tonic-clonic seizures over the treatment period / Reduction in atonic seizures over the treatment period / Reduction in tonic seizures over the treatment period: concentration or dose not given beside the values; Seizure frequency, tonic-clonic / Seizure frequency, myoclonic / Seizure frequency, absence / Seizure frequency, focal with impairment / Seizure frequency, tonic / Seizure frequency, focal without impairment / Seizure frequency, atonic: unit not given here
Details: for Seizure frequency, atonic: baseline 20.0
Experimental: Subjects were required to be on one or more AEDs at stable doses for a minimum of two weeks prior to baseline and to have stable vagus nerve stimulation (VNS) settings and ketogenic diet ratios for a minimum of four weeks prior to baseline.
Modifications were made to concomitant AEDs as per clinical indication.
Seizure frequency, intensity, and duration were recorded by caregivers in a diary during a baseline period of at least 28 days. Changes in seizure frequency relative to baseline were calculated after at least 2 weeks and at defined timepoints of treatment.
Patients may be defined as responders if they had more than 50% reduction in seizure frequency compared to baseline. The percent change in seizure frequency was calculated as follows: […]
The percent change of seizure frequency may be calculated for any time interval where seizure number has been recorded. For the purpose of this example the percent change of seizure frequency for the end of the treatment period was calculated as follows: […]

[1] = Patient 1, treated for 48 weeks, vs baseline
[2] = Patient 2, 4 weeks, CBD 25.0 mg/kg/day, baseline 8.0
[3] = Patient 2, 8 weeks, CBD 25.0 mg/kg/day, baseline 8.0
[4] = Patient 2, 24 weeks, CBD 25.0 mg/kg/day, baseline 8.0
[5] = Patient 3, treated for 108 weeks, vs baseline

For `C=C(C)[C@@H]1CCC(C)=C[C@H]1c1c(O)cc(CCCCC)cc1O` [CBD, cannabidiol], the “Time of treatment after which patient became completely seizure free, focal seizures with impairment” value (Patient 1) was 24 weeks, the “Time of treatment after which patient became completely seizure free, myoclonic seizures” value (Patient 1) was 8 weeks and the “Seizure frequency, tonic-clonic” value (Patient 1, 4 weeks, CBD 5.0 mg/kg/day, baseline 0.0) was 14.0. For the same compound, the “Seizure frequency, myoclonic” value (Patient 1, 4 weeks, CBD 5.0 mg/kg/day, baseline 75.0) was 4.0, the “Seizure frequency, focal with impairment” value (Patient 1, 4 weeks, CBD 5.0 mg/kg/day, baseline 100.0) was 14.0 and the “Seizure frequency, absence” value (Patient 1, 4 weeks, CBD 5.0 mg/kg/day, baseline 2500.0) was 800.0. The “Seizure frequency, tonic-clonic” value (Patient 1, 8 weeks, CBD 10.0 mg/kg/day, baseline 0.0) was 20.0, the “Seizure frequency, myoclonic” value (Patient 1, 8 weeks, CBD 10.0 mg/kg/day, baseline 75.0) was 0.0 and the “Seizure frequency, focal with impairment” value (Patient 1, 8 weeks, CBD 10.0 mg/kg/day, baseline 100.0) was 12.0. For the same compound, the “Seizure frequency, absence” value (Patient 1, 8 weeks, CBD 10.0 mg/kg/day, baseline 2500.0) was 1390.0, the “Seizure frequency, tonic-clonic” value (Patient 1, 16 weeks, CBD 15.0 mg/kg/day, baseline 0.0) was 20.0 and the “Seizure frequency, myoclonic” value (Patient 1, 16 weeks, CBD 15.0 mg/kg/day, baseline 75.0) was 0.0. For the same compound, the “Seizure frequency, focal with impairment” value (Patient 1, 16 weeks, CBD 15.0 mg/kg/day, baseline 100.0) was 7.0, the “Seizure frequency, absence” value (Patient 1, 16 weeks, CBD 15.0 mg/kg/day, baseline 2500.0) was 250.0 and the “Seizure frequency, tonic-clonic” value (Patient 1, 24 weeks, CBD 20.0 mg/kg/day, baseline 0.0) was 79.6. The “Seizure frequency, myoclonic” value (Patient 1, 24 weeks, CBD 20.0 mg/kg/day, baseline 75.0) was 0.0, the “Seizure frequency, focal with impairment” value (Patient 1, 24 weeks, CBD 20.0 mg/kg/day, baseline 100.0) was 0.0 and the “Seizure frequency, absence” value (Patient 1, 24 weeks, CBD 20.0 mg/kg/day, baseline 2500.0) was 398.0. The “Seizure frequency, tonic-clonic” value (Patient 1, 36 weeks, CBD 25.0 mg/kg/day, baseline 0.0) was 31.3, the “Seizure frequency, myoclonic” value (Patient 1, 36 weeks, CBD 25.0 mg/kg/day, baseline 75.0) was 0.0 and the “Seizure frequency, focal with impairment” value (Patient 1, 36 weeks, CBD 25.0 mg/kg/day, baseline 100.0) was 0.0. The “Seizure frequency, absence” value (Patient 1, 36 weeks, CBD 25.0 mg/kg/day, baseline 2500.0) was 466.6, the “Seizure frequency, tonic-clonic” value (Patient 1, 48 weeks, CBD 25.0 mg/kg/day, baseline 0.0) was 16.0 and the “Seizure frequency, myoclonic” value (Patient 1, 48 weeks, CBD 25.0 mg/kg/day, baseline 75.0) was 0.0. For the same compound, the “Seizure frequency, focal with impairment” value (Patient 1, 48 weeks, CBD 25.0 mg/kg/day, baseline 100.0) was 0.0, the “Seizure frequency, absence” value (Patient 1, 48 weeks, CBD 25.0 mg/kg/day, baseline 2500.0) was 231.7 and the “Reduction in absence seizures over the treatment period” value [1] was 90.7%. For the same compound, the “Reduction in focal seizures with impairment over the treatment period” value [1] was 100%, the “Reduction in myoclonic seizures over the treatment period” value [1] was 100% and the “Seizure frequency, tonic-clonic” value (Patient 2, 4 weeks, CBD 25.0 mg/kg/day, baseline 1.0) was 0.0. For the same compound, the “Seizure frequency, absence” value [2] was 6.0, the “Seizure frequency, focal without impairment” value [2] was 8.0 and the “Seizure frequency, tonic” value (Patient 2, 4 weeks, CBD 25.0 mg/kg/day, baseline 32.0) was 44.0. For the same compound, the “Seizure frequency, tonic-clonic” value (Patient 2, 8 weeks, CBD 25.0 mg/kg/day, baseline 1.0) was 0.0, the “Seizure frequency, absence” value [3] was 0.0 and the “Seizure frequency, focal without impairment” value [3] was 0.0. The “Seizure frequency, tonic” value (Patient 2, 8 weeks, CBD 25.0 mg/kg/day, baseline 32.0) was 24.0, the “Seizure frequency, tonic-clonic” value (Patient 2, 24 weeks, CBD 25.0 mg/kg/day, baseline 1.0) was 0.5 and the “Seizure frequency, absence” value [4] was 12.0. The “Seizure frequency, focal without impairment” value [4] was 17.0, the “Seizure frequency, tonic” value (Patient 2, 24 weeks, CBD 25.0 mg/kg/day, baseline 32.0) was 56.0 and the “Reduction in tonic-clonic seizures over the treatment period” value (Patient 2, treated for 24 weeks, vs baseline) was 50%. For the same compound, the “Seizure frequency, tonic-clonic” value (Patient 3, 2 weeks, CBD 5.0 mg/kg/day, baseline 6.0) was 8.0, the “Seizure frequency, myoclonic” value (Patient 3, 2 weeks, CBD 5.0 mg/kg/day, baseline 32.0) was 6.0 and the “Seizure frequency, tonic-clonic” value (Patient 3, 4 weeks, CBD 10.0 mg/kg/day, baseline 6.0) was 5.3. For the same compound, the “Seizure frequency, myoclonic” value (Patient 3, 4 weeks, CBD 10.0 mg/kg/day, baseline 32.0) was 9.3, the “Seizure frequency, tonic-clonic” value (Patient 3, 8 weeks, CBD 20.0 mg/kg/day, baseline 6.0) was 6.0 and the “Seizure frequency, myoclonic” value (Patient 3, 8 weeks, CBD 20.0 mg/kg/day, baseline 32.0) was 16.0. For the same compound, the “Seizure frequency, tonic-clonic” value (Patient 3, 16 weeks, CBD 25.0 mg/kg/day, baseline 6.0) was 11.0, the “Seizure frequency, myoclonic” value (Patient 3, 16 weeks, CBD 25.0 mg/kg/day, baseline 32.0) was 4.0 and the “Seizure frequency, tonic-clonic” value (Patient 3, 36 weeks, CBD 30.0 mg/kg/day, baseline 6.0) was 2.6. The “Seizure frequency, myoclonic” value (Patient 3, 36 weeks, CBD 30.0 mg/kg/day, baseline 32.0) was 9.3, the “Seizure frequency, tonic-clonic” value (Patient 3, 48 weeks, CBD 35.0 mg/kg/day, baseline 6.0) was 7.7 and the “Seizure frequency, myoclonic” value (Patient 3, 48 weeks, CBD 35.0 mg/kg/day, baseline 32.0) was 18.4. The “Seizure frequency, tonic-clonic” value (Patient 3, 60 weeks, CBD 35.0 mg/kg/day, baseline 6.0) was 6.6, the “Seizure frequency, myoclonic” value (Patient 3, 60 weeks, CBD 35.0 mg/kg/day, baseline 32.0) was 19.4 and the “Seizure frequency, tonic-clonic” value (Patient 3, 72 weeks, CBD 30.0 mg/kg/day, baseline 6.0) was 3.4. The “Seizure frequency, myoclonic” value (Patient 3, 72 weeks, CBD 30.0 mg/kg/day, baseline 32.0) was 9.7, the “Seizure frequency, tonic-clonic” value (Patient 3, 96 weeks, CBD 30.0 mg/kg/day, baseline 6.0) was 1.0 and the “Seizure frequency, myoclonic” value (Patient 3, 96 weeks, CBD 30.0 mg/kg/day, baseline 32.0) was 13.8. The “Seizure frequency, tonic-clonic” value (Patient 3, 108 weeks, CBD 30.0 mg/kg/day, baseline 6.0) was 0.9, the “Seizure frequency, myoclonic” value (Patient 3, 108 weeks, CBD 30.0 mg/kg/day, baseline 32.0) was 13.8 and the “Reduction in myoclonic seizures over the treatment period” value [5] was 56.9%. For the same compound, the “Reduction in tonic-clonic seizures over the treatment period” value [5] was 85%, the “Seizure frequency, tonic-clonic” value (Patient 4, 2 weeks, CBD 5.0 mg/kg/day, baseline 10.0) was 2.0 and the “Seizure frequency, focal with impairment” value (Patient 4, 2 weeks, CBD 5.0 mg/kg/day, baseline 14.0) was 4.0. The “Seizure frequency, atonic” value (Patient 4, 2 weeks, CBD 5.0 mg/kg/day) was 0.0, the “Seizure frequency, tonic-clonic” value (Patient 4, 4 weeks, CBD 10.0 mg/kg/day, baseline 10.0) was 2.0 and the “Seizure frequency, focal with impairment” value (Patient 4, 4 weeks, CBD 10.0 mg/kg/day, baseline 14.0) was 2.0. For the same compound, the “Seizure frequency, atonic” value (Patient 4, 4 weeks, CBD 10.0 mg/kg/day) was 1.0, the “Seizure frequency, tonic-clonic” value (Patient 4, 8 weeks, CBD 20.0 mg/kg/day, baseline 10.0) was 0.0 and the “Seizure frequency, focal with impairment” value (Patient 4, 8 weeks, CBD 20.0 mg/kg/day, baseline 14.0) was 0.0. The “Seizure frequency, atonic” value (Patient 4, 8 weeks, CBD 20.0 mg/kg/day) was 0.0, the “Seizure frequency, tonic-clonic” value (Patient 4, 12 weeks, CBD 20.0 mg/kg/day, baseline 10.0) was 0.0 and the “Seizure frequency, focal with impairment” value (Patient 4, 12 weeks, CBD 20.0 mg/kg/day, baseline 14.0) was 0.0. The “Seizure frequency, atonic” value (Patient 4, 12 weeks, CBD 20.0 mg/kg/day) was 5.0.
